# Reference: ChEMBL document CHEMBL1147869, “Computational approach to the basicity of a series of alpha1-adrenoceptor ligands in aqueous solution” (Bioorg Med Chem, 2007)
# Assay: Dissociation constant, pKa of the compound
# Assay type: physicochemical
row,pKa,SMILES
1,8.6,O=C(c1ccc(NC2=NCCN2)cc1)c1ccc(NC2=NCCN2)cc1
2,8.59,CNC[C@H](O)c1ccc(O)c(O)c1 [EPINEPHRINE]
3,9.9,c1cc(Nc2ccc(NC3=NCCN3)cc2)ccc1NC1=NCCN1
4,9.8,c1cc(NC2=NCCN2)ccc1Cc1ccc(NC2=NCCN2)cc1
5,10.5,N=C(N)Nc1ccc(Cc2ccc(NC(=N)N)cc2)cc1
6,8.58,NC[C@H](O)c1ccc(O)c(O)c1 [NOREPINEPHRINE]
7,9.4,N=C(N)Nc1ccc(C(=O)c2ccc(NC(=N)N)cc2)cc1
8,10.8,N=C(N)Nc1ccc(Nc2ccc(NC(=N)N)cc2)cc1
9,6.9,COc1cc2nc(N3CCN(C(=O)C4COc5ccccc5O4)CC3)nc(N)c2cc1OC (centres undefined) [DOXAZOSIN]
